Bounds are passed on as bounds.

This test deals with T1, human neurotrypsin (Homo sapiens, UniProt P56730).
T1 sequence (P56730 21-875): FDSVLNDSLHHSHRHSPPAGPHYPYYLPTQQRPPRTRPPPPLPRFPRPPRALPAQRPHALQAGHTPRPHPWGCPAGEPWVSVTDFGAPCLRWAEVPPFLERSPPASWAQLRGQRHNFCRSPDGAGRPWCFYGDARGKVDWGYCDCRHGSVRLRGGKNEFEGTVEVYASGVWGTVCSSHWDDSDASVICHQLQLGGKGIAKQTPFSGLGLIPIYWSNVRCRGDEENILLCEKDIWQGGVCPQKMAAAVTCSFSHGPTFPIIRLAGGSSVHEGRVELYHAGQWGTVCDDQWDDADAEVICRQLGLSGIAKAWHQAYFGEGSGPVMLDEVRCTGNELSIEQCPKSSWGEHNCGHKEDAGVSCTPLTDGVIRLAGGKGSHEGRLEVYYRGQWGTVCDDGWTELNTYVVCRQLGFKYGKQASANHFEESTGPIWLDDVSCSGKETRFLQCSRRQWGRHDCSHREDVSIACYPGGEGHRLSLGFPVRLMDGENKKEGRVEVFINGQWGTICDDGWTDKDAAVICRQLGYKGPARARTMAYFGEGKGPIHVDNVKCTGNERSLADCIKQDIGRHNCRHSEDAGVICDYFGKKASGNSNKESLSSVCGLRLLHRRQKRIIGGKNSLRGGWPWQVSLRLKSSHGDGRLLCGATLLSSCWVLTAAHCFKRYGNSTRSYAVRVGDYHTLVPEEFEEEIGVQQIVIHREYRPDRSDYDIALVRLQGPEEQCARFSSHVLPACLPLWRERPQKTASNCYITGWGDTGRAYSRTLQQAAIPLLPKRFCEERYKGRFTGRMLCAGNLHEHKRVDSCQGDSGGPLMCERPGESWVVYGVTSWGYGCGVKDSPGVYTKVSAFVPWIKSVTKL
Nature of the test: Determination of IC50 for human neurotrypsin. As to conditions: human neurotrypsin; method of WO 2006/1103261; read-out: Neurotrypsin IC50. The test is classed as biochemical. Here is the method:
Assessment of the potency of compounds of examples 1-311 in inhibiting the enzymatic activity of human neurotrypsin was performed according to the method described in patent application WO 2006/1103261
For “2-(6-Chlorobenzo[b]-thiophene-2-carboxamido)-5-((5-chlorothiophen-2-yl-methyl)carbamoyl)benzoic acid [Example 107]”, the IC50 was 4.8 µM.
The figure for “3-Chloro-N-(5-(5-chloro-1,3-thiazol-2-ylcarbamoyl)-2-(2H-tetrazol-5-yl)phenyl)benzo[b]-thiophene-2-carboxamide [Example 227]” is 9.7 µM.
The figure for “4-(4-tert-Butoxyphenyl-carbamoyl)-3-(3-chloro-thiophene-2-carboxamido)-benzoic acid [Example 194]” is 5.9 µM; for “5-(N-4-Butylphenyl-N-methyl-carbamoyl)-2-(4-(5,6-dichloro-1H-benzo[d]-imidazol-2-yl)benzamido)-benzoic acid [Example 44]” it is 1.6 µM; for `O=C(Nc1ccc(Cl)cc1)c1ccc(C(=O)O)c(NC(=O)c2sc3ccccc3c2Cl)c1` [Example 1, 2-(3-Chlorobenzo[b]thiophene-2-carboxamido)-4-(4-chlorophenylcarbamoyl)-benzoic acid] it is 8.5 µM.
`O=C(Nc1ccc(Cl)cc1F)c1ccc(C(=O)O)c(NC(=O)c2sc3ccccc3c2Cl)c1` [Example 5, 2-(3-Chlorobenzo[b]-thiophene-2-carboxamido)-4-(4-chloro-2-fluoro-phenyl-carbamoyl)benzoic acid]: the IC50 stood at 1.9 µM.
On to `O=C(Nc1ccc(Cl)cc1)c1ccc(C(=O)O)c(NC(=O)c2ccc(-c3ccccc3)s2)c1` [Example 9, 4-(4-Chlorophenyl-carbamoyl)-2-(5-phenyl-thiophene-2-carboxamido)-benzoic acid], for which the IC50 amounted to 25.7 µM.
Regarding `O=C(Nc1ccc(Cl)cn1)c1ccc(C(=O)O)c(NC(=O)c2sc3ccccc3c2Cl)c1` [Example 16, 2-(3-Chlorobenzo[b]-thiophene-2-carboxamido)-4-(5-chloropyridin-2-yl-carbamoyl)benzoic acid], the IC50 came out at 8 µM.
The figure for `O=C(Nc1ccc(Cl)cc1)c1ccc(C(=O)O)c(NC(=O)c2sc3cc(Cl)ccc3c2Cl)c1` [Example 18, 4-(4-Chlorophenyl-carbamoyl)-2-(3,6-dichloro-benzo[b]thiophene-2-carboxamido)benzoic acid] is 8.3 µM; for `O=C(Nc1ccc(Cl)cc1)c1ccc(C(=O)O)c(NC(=O)c2cc3ccc(Cl)cc3s2)c1` [Example 23] it is 2.6 µM.
Regarding `O=C(O)c1ccc(C(=O)N2CCC(Cc3ccccc3)CC2)cc1NC(=O)c1sc2ccccc2c1Cl` [Example 24, 4-(4-Benzylpiperidine-1-carbonyl)-2-(3-chloro-benzo[b]thiophene-2-carboxamido)benzoic acid], the half-maximal inhibitory concentration (IC50) came to 4 µM.
On to `O=C(O)c1ccc(C(=O)Nc2ccc(Cl)cc2)c(NC(=O)c2ccc(-c3ccccc3)s2)c1` [Example 25, 4-(4-Chlorophenyl-carbamoyl)-3-(5-phenyl-thiophene-2-carboxamido)-benzoic acid], for which the IC50 is over 150 µM.
As to `O=C(Nc1ccc(Cl)cc1)c1ccc(NC(=O)c2sc3ccccc3c2Cl)c(C(=O)O)c1` [Example 26, 2-(3-Chlorobenzo[b]-thiophene-2-carboxamido)-5-(4-chlorophenylcarbamoyl)-benzoic acid], the IC50 was 3.2 µM.
To `O=C(Nc1ncc(Cl)s1)c1ccc(C(=O)O)c(NC(=O)c2ccc(-c3ccc(F)cc3)s2)c1` [Example 27, 4-(5-Chlorothiazol-2-yl-carbamoyl)-2-(5-(4-fluorophenyl)thiophene-2-carboxamido)benzoic acid] belongs 5 µM; to `O=C(O)c1ccc(C(=O)N2CCC(Oc3ccccc3)CC2)cc1NC(=O)c1sc2ccccc2c1Cl` [Example 28, 2-(3-Chlorobenzo[b]-thiophene-2-carboxamido)-4-(4-phenoxypiperidine-1-carbonyl)benzoic acid], 11.3 µM.
The figure for `O=C(NC1CCCc2ccccc21)c1ccc(C(=O)O)c(NC(=O)c2sc3ccccc3c2Cl)c1` (stereo not drawn) [Example 32, 2-(3-Chlorobenzo[b]-thiophene-2-carboxamido)-4-(1,2,3,4-tetrahydro-naphthalen-1-ylcarbamoyl)-benzoic acid] is 13.6 µM; for `O=C(NC12CC3CC(CC(C3)C1)C2)c1ccc(C(=O)O)c(NC(=O)c2sc3ccccc3c2Cl)c1` [Example 33, 2-(3-Chlorobenzo[b]-thiophene-2-carboxamido)-4-(adamantylcarbamoyl)-benzoic acid] it is 4.5 µM.
To `O=C(N[C@@H]1C[C@H]2CC[C@@H]1C2)c1ccc(C(=O)O)c(NC(=O)c2sc3ccccc3c2Cl)c1` [Example 34, 4-((1R,2R,4S)-Bicyclo[2.2.1]-heptan-2-ylcarbamoyl)-2-(3-chlorobenzo[b]thiophene-2-carboxamido)benzoic acid] belongs 14.1 µM; to `O=C(O)c1cc(C(=O)N2CCC(c3c(Cl)cccc3Cl)CC2)ccc1NC(=O)c1sc2ccccc2c1Cl` [Example 35, 2-(3-Chlorobenzo[b]-thiophene-2-carboxamido)-5-(4-(2,6-dichlorophenyl)-piperidine-1-carbonyl)benzoic acid], 3.2 µM.
`O=C(Nc1ccc(Cl)cc1)c1ccc(NC(=O)c2ccc(-c3nc4ccccc4[nH]3)cc2)c(C(=O)O)c1` [Example 36, 2-(4-(1H-Benzo[d]imidazol-2-yl)benzamido)-5-(4-chloro-phenylcarbamoyl)benzoic acid]: the IC50 turned out to be 3.5 µM.
To `O=C(Nc1ccc(Cl)cc1)c1ccc(NC(=O)c2ccc(-c3nc4cc(Cl)ccc4[nH]3)cc2)c(C(=O)O)c1` [Example 37, 2-(4-(5-Chloro-1H-benzo[d]-imidazol-2-yl)benzamido)-5-(4-chlorophenylcarbamoyl)-benzoic acid] belongs 1.6 µM.
To `O=C(Nc1ccc(C(=O)N2CCC(c3ccc(F)cc3)CC2)cc1C(=O)O)c1ccc(-c2nc3cc(Cl)c(Cl)cc3[nH]2)cc1` [Example 38, 2-(4-(5,6-Dichloro-1H-benzo[d]imidazol-2-yl)-benzamido)-5-(4-(4-fluorophenyl)piperidine-1-carbonyl)benzoic acid] belongs 4.8 µM; to `O=C(Nc1ccc(Cl)cc1)c1ccc(C(=O)O)c(NC(=O)c2ccc(-c3nc4cc(Cl)c(Cl)cc4[nH]3)cc2)c1` [Example 40, 4-(4-Chlorophenyl-carbamoyl)-2-(4-(5,6-di-chloro-1H-benzo[d]imidazol-2-yl)benzamido)benzoic acid], 0.8 µM.
As to `CC(C)CN(CC(C)C)C(=O)c1ccc(NC(=O)c2ccc(-c3nc4cc(Cl)c(Cl)cc4[nH]3)c(O)c2)c(C(=O)O)c1` [Example 42, 2-(4-(5,6-Dichloro-1H-benzo[d]imidazol-2-yl)-3-hydroxybenzamido)-5-(diisobutylcarbamoyl)benzoic acid], the IC50 was 4.4 µM.
For the compound `CC(C)CCN(C)C(=O)c1ccc(NC(=O)c2ccc(-c3nc4cc(Cl)c(Cl)cc4[nH]3)cc2)c(C(=O)O)c1` [Example 43, 2-(4-(5,6-Dichloro-1H-benzo[d]imidazol-2-yl)-benzamido)-5-(N-isopentyl-N-methylcarbamoyl)benzoic acid], the IC50 is 3.9 µM.
To `CC(C)CN(C(=O)c1ccc(NC(=O)c2ccc(-c3nc4cc(Cl)c(Cl)cc4[nH]3)cc2)c(C(=O)O)c1)c1ccc(Cl)cc1` [Example 45, 5-(N-4-Chlorophenyl-N-isobutylcarbamoyl)-2-(4-(5,6-dichloro-1H-benzo[d]-imidazol-2-yl)benzamido)-benzoic acid] belongs 1.5 µM; to `CC(C)CN(CC(C)C)C(=O)c1ccc(NC(=O)c2ccc(-c3nc4cc(Cl)c(Cl)cc4n3C)cc2)c(C(=O)O)c1` [Example 46, 2-(4-(5,6-Dichloro-1-methyl-1H-benzo[d]imidazol-2-yl)benzamido)-5-(diisobutyl-carbamoyl)benzoic acid], 3.4 µM; to `O=C(Nc1ccccc1F)c1ccc(NC(=O)c2ccc(-c3nc4cc(Cl)c(Cl)cc4[nH]3)cc2)c(C(=O)O)c1` [Example 48, 2-(4-(5,6-Dichloro-1H-benzo[d]imidazol-2-yl)-benzamido)-5-(2-fluoro-phenylcarbamoyl)benzoic acid], 3.4 µM.
To `CN(CC1CCCCC1)C(=O)c1ccc(NC(=O)c2ccc(-c3nc4cc(Cl)c(Cl)cc4[nH]3)cc2)c(C(=O)O)c1` [Example 49, 5-(N-Cyclohexylmethyl-N-methylcarbamoyl)-2-(4-(5,6-dichloro-1H-benzo[d]-imidazol-2-yl)benzamido)-benzoic acid] belongs 6.6 µM.
To `O=C(Nc1ccc(Cl)cc1F)c1ccc(NC(=O)c2ccc(-c3nc4cc(Cl)c(Cl)cc4[nH]3)cc2)c(C(=O)O)c1` [Example 51, 5-(4-Chloro-2-fluorophenyl-carbamoyl)-2-(4-(5,6-dichloro-1H-benzo[d]-imidazol-2-yl)benzamido)-benzoic acid] belongs 0.5 µM.

For orientation: IC50 means the concentration that inhibits the measured activity by half.

The values above are taken from US20130261130A1, “NEUROTRYPSIN INHIBITORS” (priority 2010, published 2013).
